Data reported in patent US20220267753A1, “RATIONAL THERAPEUTIC TARGETING OF ONCOGENIC IMMUNE SIGNALING STATES IN MYELOID MALIGNANCIES VIA THE UBIQUITIN CONJUGATING ENZYME UBE2N” (CHILDREN'S HOSPITAL MEDICAL CENTER, priority 2019, published 2022).

What was measured:
Cord Blood CD34+ = assay: Cell proliferation MTS assay; type: cell-based, human
Description: AML cell lines (5×10^3 cells/well) were seeded in 96-well plates and grown for 24 to 96 h in serum (10%)-containing medium in the presence or absence of inhibitors at the indicated concentrations. Proliferation was analyzed by means of an MTS assay using the CellTiter 96 Aqueous One Solution Cell Proliferation Assay (Promega, Madison, Wis., USA), according to the manufacturer's instructions. Data are mean with standard deviation from three independent experiments in technical triplicates. For the screening of 160 compounds from the UC library, the cell metabolic activity was assessed at 24 hours of treatment of MOLM-13 cells. Top 15 candidates were re-screened at 2 μM, and the cell metabolic activity was determined at 24 hours of treatment. In certain experiments, cell viability was determined by staining the cells with trypan blue at a 1/2 dilution and counting total number of viable cells upon treatment with UC-764864 or DMSO control. The cells were counted daily for 4 days using an automated cell counter (Countess II FL from Life Technologies). […] UC-764864 was added at the indicated concentrations and cells were incubated with drug for 3 days, at which point cell viability was measured by MTS according to manufacturer's instructions.

MOLM-13 cells = assay: MTS assay of MOLM-13 cells overexpressing UBE2N wild type or UBE2N C87S; type: cell-based, human
Excerpt: For knockdown studies, UBE2N shRNA template oligonucleotides from the TRC shRNA library cloned into the pLKO.1 TRC cloning vector (Addgene: #10878) and pLKO.1 TRC cloning vector (Table 3). The puromycin gene in pLKO.1 was replaced with GFP. pLKO.1 TRC control was used as non-silencing control (Addgene: #10879). For production of lentiviral particles, lentiviral shRNA expression constructs were transfected together with packaging vectors into 293T producer cells using TransIT transfection reagent (Mirus, MIR 2306), supernatants were harvested after 48 and 72 hours, and concentrated by ultracentrifugation. […] UBE2N knockdown efficiency was determined by quantitative real time PCR (qRT-PCR) and western blot and quantified as described elsewhere. […] Levels of overexpression of UBE2N were determined by western blot.
AML cell lines (5×10^3 cells/well) were seeded in 96-well plates and grown for 24 to 96 h in serum (10%)-containing medium in the presence or absence of inhibitors at the indicated concentrations. Proliferation was analyzed by means of an MTS assay using the CellTiter 96 Aqueous One Solution Cell Proliferation Assay (Promega, Madison, Wis., USA), according to the manufacturer's instructions. […] For the screening of 160 compounds from the UC library, the cell metabolic activity was assessed at 24 hours of treatment of MOLM-13 cells. […]

[1] = Microsomal stability (human liver microsomes); type: in vitro ADME
UBE2N C87S = molecular target: T1, UBE2N C87S (Homo sapiens, UniProt P61088, C87S); assay: Differential scanning fluorimetry (DSF); type: binding
T1 construct: purchased Genescript
Description: (§1) Recombinant UBE2N (2 .tg; Life sensors #UB218) in 3 .tl of buffer containing 20 mM Tris-HCl pH 7.4, 10 mM DTT, 10% glycerol, 150 mM NaCl and 0.02% DMSO as well as six samples of 1 .tg UBE2N mixed with 0.2 .tg of UC-764864 or UC-764865 were diluted to 50 ng/uL in 0.1% formic acid (FA) in preparation of MALDI-TOF analysis. Two .tl aliquots from the samples were used to make a 1:5 dilution with MALDI matrix (5 mg/mL sinapic acid in 60% ACN/0.1% formic acid) with 1 .tL spotted onto the target plate for analysis. For UBE2N C87S mutant, recombinant protein was purchased from Genescript. 2 micrograms of protein as well as 3 samples of UBE2N C87S were mixed with 0.4 micrograms of UC-764864 and UC-764865 in 10 microliters of buffer containing 20 mM Tris HCl pH 7.4, 1 mM DTT, 150 mM NaCl and ˜0.01% of DMSO in each sample. All mixtures were brought up to 40 ul by adding 30 ul of 0.1% formic acid (FA). 5 ul aliquots from the samples were used to make a 1:5 dilution with MALDI matrix as described above. […] The temperature was raised in 1° C. increments from 25° C. to 95° C. and fluorescence was measured at 530 nm. Derivative Tm was determined using Protein Thermal Shift Software version 1.3 by Applied Biosystems and then were analyzed with Prism 6 (GraphPad Software Inc.).

UBE2N wild type = molecular target: T2, UBE2N wild type (Homo sapiens, UniProt P61088); assay: Differential scanning fluorimetry (DSF); type: binding; conditions: recombinant UBE2N protein
T2 construct: purchased Life sensors UB218
T2 sequence (P61088 1-152): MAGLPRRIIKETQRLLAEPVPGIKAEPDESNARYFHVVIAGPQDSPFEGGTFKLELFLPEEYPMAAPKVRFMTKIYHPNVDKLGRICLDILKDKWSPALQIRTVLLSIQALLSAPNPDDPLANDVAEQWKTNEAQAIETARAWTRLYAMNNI
Description: as §1

T1 sequence (P61088 whole entry C87S): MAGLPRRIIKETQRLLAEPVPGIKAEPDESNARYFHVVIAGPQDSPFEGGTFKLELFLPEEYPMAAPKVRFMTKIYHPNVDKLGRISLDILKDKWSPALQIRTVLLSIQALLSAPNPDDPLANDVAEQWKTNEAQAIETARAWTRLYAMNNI

Structure (SMILES) | proliferation capacity of cord blood CD34+ cells (Cord Blood CD34+) | IC50 (Cord Blood CD34+; Homo sapiens, Cord Blood CD34+, MTS, 24 hours) [µM] | viability of MOLM-13 cells expressing UBE2N(C87S) (MOLM-13 cells) | viability of MOLM-13 cells expressing wild-type UBE2N (MOLM-13 cells) | metabolism in human liver microsomes [1] | change in Tm of UBE2N(C87S) (UBE2N C87S) | change in melting temperature (Tm) (UBE2N wild type) [C degrees]
CCc1ccc(C(=O)C=CSc2nc3ccc(C)cc3[nH]2)cc1 [UC-764864, 1-(4-ethylphenyl)-3-[(6-methyl-1H-benzimidazol-2-yl)sulfanyl]prop-2-en-1-one] | did not affect | > 10 | did not affect | significantly suppressed | readily metabolized |  | 
COc1ccc(C(=O)C=CSc2nc3ccc(C)cc3[nH]2)cc1 [UC-764865, 1-(4-methoxyphenyl)-3-[(6-methyl-1H-benzimidazol-2-yl)sulfanyl]prop-2-en-1-one] |  |  |  |  |  | did not change | −2
